Target: Substance-P receptor (Homo sapiens, UniProt P25103)
Assay: Displacement of [3H]SP from human NK1 receptor expressed in CHO cells

Substance-P receptor, sequence (P25103 whole entry): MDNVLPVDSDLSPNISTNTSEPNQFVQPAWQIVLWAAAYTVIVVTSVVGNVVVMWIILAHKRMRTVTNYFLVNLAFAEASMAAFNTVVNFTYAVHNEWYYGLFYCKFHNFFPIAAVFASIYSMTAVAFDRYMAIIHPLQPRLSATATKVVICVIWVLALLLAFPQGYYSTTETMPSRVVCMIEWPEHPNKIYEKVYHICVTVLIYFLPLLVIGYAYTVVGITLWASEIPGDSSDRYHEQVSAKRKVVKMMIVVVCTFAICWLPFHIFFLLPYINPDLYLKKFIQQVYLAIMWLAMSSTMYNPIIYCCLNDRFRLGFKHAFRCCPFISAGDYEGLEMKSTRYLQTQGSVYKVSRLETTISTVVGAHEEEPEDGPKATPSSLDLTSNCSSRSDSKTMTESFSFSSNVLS

- IC50: 300 pM
Structure (SMILES): C[C@@H](O[C@@H]1CN(C2CC(=O)C(=O)C2)C[C@H]1c1ccc(F)cc1)c1cc(C(F)(F)F)cc(C(F)(F)F)c1 [3-((3S,4R)-3-((R)-1-(3,5-bis(trifluoromethyl)phenyl)ethoxy)-4-(4-fluorophenyl)pyrrolidin-1-yl)-5-hydroxycyclopent-2-enone]

From BindingDB's records for doi:10.1016/j.bmcl.2007.06.085 (Merck, 2007)
